Measured values: the CheMixHub viscosity set
Values joined by “and” are separate entries in the source; they are usually repeats but may differ in a detail not shown here. Identical values can stand only once.

Test: xn = mol fraction of the nth substance listed

Cc1cccc(C)c1 + COCCO
viscosity [mPa·s], 101 kPa
Conditions	298.15 K	308.15 K
x2 = 0.0519	0.598	0.513
x2 = 0.1498	0.635	0.543
x2 = 0.2504	0.681	0.58
x2 = 0.3476	0.737	0.624
x2 = 0.452	0.81	0.68
x2 = 0.4991	0.848	0.709
x2 = 0.5538	0.897	0.746
x2 = 0.6476	0.996	0.819
x2 = 0.7504	1.127	0.915
x2 = 0.8491	1.282	1.026
x2 = 0.9558	1.491	1.172

Nc1ccccc1Cl + COCCO
303.15 K, 101 kPa
Conditions	viscosity [mPa·s]
x1 = 0.093	2.184
x1 = 0.157	2.388
x1 = 0.2242	2.597
x1 = 0.3168	2.811
x1 = 0.415	3.024
x1 = 0.5093	3.223
x1 = 0.6253	3.414
x1 = 0.7713	3.581
x1 = 0.8914	3.711

O=S1(=O)CCCC1 + COCCO
303.15 K, 101 kPa
Conditions	viscosity [mPa·s]
x1 = 0.0483	1.2
x1 = 0.0994	1.054
x1 = 0.1962	1.489
x1 = 0.2953	2.053
x1 = 0.3486	2.251
x1 = 0.4007	2.703
x1 = 0.4569	3.258
x1 = 0.4997	3.863
x1 = 0.5991	4.997
x1 = 0.7126	6.301
x1 = 0.7971	7.413
x1 = 0.8496	8.345
x1 = 0.8986	9.013

Nc1ccccc1Cl + COc1ccccc1
viscosity [mPa·s], 101 kPa
Conditions	x2 = 0.1009	x2 = 0.1969	x2 = 0.2948	x2 = 0.3986	x2 = 0.4961	x2 = 0.5977	x2 = 0.6935	x2 = 0.7952	x2 = 0.9001
298.15 K	2.72	2.454	2.19	1.958	1.746	1.566	1.404	1.27	1.124
303.15 K	2.42	2.196	1.969	1.762	1.583	1.427	1.285	1.156	1.044
308.15 K	2.162	1.971	1.772	1.595	1.438	1.302	1.176	1.064	0.9578
313.15 K	1.939	1.773	1.6	1.446	1.309	1.189	1.08	0.9804	0.8856

Cc1ccc(O)cc1 + CS(C)=O
viscosity [mPa·s], 101 kPa
Conditions	x1 = 0.0702	x1 = 0.1453	x1 = 0.2257	x1 = 0.3119	x1 = 0.4047	x1 = 0.505	x1 = 0.5778	x1 = 0.7312	x1 = 0.8595
303.15 K	2.036	2.307	2.913	3.456	4.277	5.056	6.524	7.908	9.499
308.15 K	1.792	2.04	2.565	3.062	3.709	4.324	5.403	6.543	7.655
313.15 K	1.604	1.833	2.293	2.698	3.24	3.769	4.649	5.745	6.083
318.15 K	1.476	1.668	2.054	2.417	2.857	3.328	4.01	4.945	5.111

Cc1cccc(C)c1 + CS(C)=O
viscosity [mPa·s], 101.3 kPa
Conditions	x2 = 0.1004	x2 = 0.2027	x2 = 0.3047	x2 = 0.4044	x2 = 0.5057	x2 = 0.6045	x2 = 0.705	x2 = 0.803	x2 = 0.9011
298.15 K	0.631	0.7	0.782	0.877	0.99	1.116	1.269	1.45	1.68
303.15 K	0.593	0.657	0.73	0.815	0.914	1.026	1.168	1.325	1.528
308.15 K	0.561	0.617	0.684	0.76	0.85	0.952	1.076	1.219	1.397

Cc1ccc(O)cc1 + C[N+](C)(C)CCO.[Cl-]
Conditions	viscosity
293.15 K, 101 kPa, x2 = 0.333	133.7 mPa·s
298.15 K, 101 kPa, x2 = 0.333	102 mPa·s
298.15 K, 101.33 kPa, x1 = 0.7	138.7 mPa·s
298.15 K, 101.33 kPa, x1 = 0.8	75.19 mPa·s and 55.19 mPa·s and 47.26 mPa·s
298.15 K, 101.33 kPa, x1 = 0.9	41.11 mPa·s
303.15 K, 101 kPa, x2 = 0.333	75.5 mPa·s
308.15 K, 101 kPa, x2 = 0.333	58.57 mPa·s
313.15 K, 101 kPa, x2 = 0.333	45.82 mPa·s
318.15 K, 101 kPa, x2 = 0.333	36.17 mPa·s
323.15 K, 101 kPa, x2 = 0.333	28.83 mPa·s

O=C[C@H](O)[C@H](O)[C@H](O)CO + C[N+](C)(C)CCO.[Cl-]
100 kPa, x2 = 0.6
Conditions	viscosity [mPa·s]
313.2 K	575.5
318.2 K	374.3

O=S(=O)(Cl)Cl + Cc1cc(C)cc(C)c1
298.15 K, 101 kPa
Conditions	viscosity [mPa·s]
x1 = 0.172	0.6735
x1 = 0.323	0.6885
x1 = 0.515	0.6997
x1 = 0.645	0.7028
x1 = 0.669	0.7025
x1 = 0.804	0.6976

Cc1cccc(C)c1 + Cc1ccc(C)cc1
viscosity [mPa·s], 101.3 kPa
Conditions	298.15 K	303.15 K
x1 = 0.0856	–	0.5666
x1 = 0.0857	0.6046	–
x1 = 0.1427	–	0.5659
x1 = 0.1428	0.6026	–
x1 = 0.2528	0.5998	0.5651
x1 = 0.3046	–	0.5648
x1 = 0.3922	0.5968	0.5643
x1 = 0.474	0.5955	0.5641
x1 = 0.5823	–	0.5636
x1 = 0.5824	0.5942	–
x1 = 0.6995	0.5935	0.5627
x1 = 0.8337	0.5928	–
x1 = 0.8339	–	0.5614
x1 = 0.9538	0.5899	0.5602

O=S1(=O)CCCC1 + Cc1ccc(C)cc1
viscosity
Conditions	x2 = 0.1118	x2 = 0.2206	x2 = 0.3266	x2 = 0.4301	x2 = 0.531	x2 = 0.6293	x2 = 0.7252	x2 = 0.8191	x2 = 0.9106
303.15 K, 101 kPa	6.156 mPa·s and 6.156 mPa·s	4.093 mPa·s and 4.093 mPa·s	2.887 mPa·s and 2.887 mPa·s	2.143 mPa·s and 2.143 mPa·s	1.608 mPa·s and 1.608 mPa·s	1.253 mPa·s and 1.253 mPa·s	0.989 mPa·s and 0.9893 mPa·s	0.812 mPa·s and 0.8122 mPa·s	0.673 mPa·s and 0.6727 mPa·s
303.15 K, 101.3 kPa	6.156 mPa·s	4.093 mPa·s	2.887 mPa·s	2.143 mPa·s	1.608 mPa·s	1.253 mPa·s	0.9893 mPa·s	0.8122 mPa·s	0.6727 mPa·s
313.15 K, 101 kPa	4.883 mPa·s	3.341 mPa·s	2.384 mPa·s	1.791 mPa·s	1.351 mPa·s	1.066 mPa·s	0.8516 mPa·s	0.7111 mPa·s	0.5929 mPa·s
323.15 K, 101 kPa	3.964 mPa·s and 3.964 mPa·s	2.74 mPa·s and 2.74 mPa·s	2 mPa·s and 2 mPa·s	1.526 mPa·s and 1.526 mPa·s	1.166 mPa·s and 1.166 mPa·s	0.925 mPa·s and 0.9254 mPa·s	0.747 mPa·s and 0.7473 mPa·s	0.627 mPa·s and 0.6269 mPa·s	0.53 mPa·s and 0.53 mPa·s
323.15 K, 101.3 kPa	3.964 mPa·s	2.74 mPa·s	2 mPa·s	1.526 mPa·s	1.166 mPa·s	0.9254 mPa·s	0.7473 mPa·s	0.6269 mPa·s	0.53 mPa·s
